This note sets out measurements from US8796339B2, “Compositions comprising benzyl alcohol derivatives and further antimicrobial active compounds” (Symrise AG, priority 2008, dated 2014).

The subject of this test is Aspergillus niger ATCC 16404. As to the kind of experiment: Testing for adequate preservation (European Pharmacopoeia 5.1.3 preservative stress test) of inoculated cosmetic emulsions. The test is classed as cell-based. The following applies: for cfu/ml at 0 days / cfu/ml at 2 days / cfu/ml at 7 days / cfu/ml at 14 days: 4-methylbenzyl alcohol 0.4%; for cfu/ml at 0 days / Aspergillus niger germ count at 0 days (initial, "0 value"): day 0; for cfu/ml at 2 days / Aspergillus niger germ count at 2 days: day 2; for cfu/ml at 7 days / Aspergillus niger germ count at 7 days: day 7; for cfu/ml at 14 days: day 14; for Aspergillus niger germ count at 0 days (initial, "0 value") / Aspergillus niger germ count at 2 days / Aspergillus niger germ count at 7 days: 1.0% product in O/W emulsion pH 5.5, B=1.0% 4-methylbenzyl alcohol. Here is the method:
Testing for adequate preservation was carried out in accordance with the European Pharmacopoeia. Testing thus comprises contamination of the formulation, if possible in its final condition, with a prescribed inoculum of suitable microorganisms, storage of the inoculated formulation at a certain temperature, removal of samples from the container at certain intervals of time and determination of the number of microorganisms in the samples removed in this way. The preserving properties are adequate if, under the conditions of the test, a clear reduction or, where appropriate, no increase in the germ count results in the inoculated formulations after the prescribed times at the prescribed temperatures. Experimental details of the test procedure are described in the European Pharmacopoeia (ISBN 3-7692-2768-9; Supplement 2001 to the 3rd Edition, page 421-422, chapter 5.1.3). E: Aspergillus niger ATCC 16404 The initial germ count (cfu/ml; “0 value”) was in the range of from 230000 to 400000 in the various test series. For the tests for adequate preservation, a defined amount of the active compound combination according to the invention (product C) was incorporated into an O/W emulsion. For comparison purposes, the comparison products (product A and B) were incorporated into separate O/W emulsions. […] Phenonip® is a commercially available (Clariant, Nipa preservatives) and in cosmetic formulations widely used antimicrobial active mixture consisting of phenoxyethanol, methylparaben, ethylparaben, butylparaben, propylparaben and isobutylparaben. Testing for adequate preservation was carried out in accordance with the European Pharmacopoeia, as explained in Example 1a. The initial germ count (cfu/ml; “0 value”) was in the range of from 200,000 to 400,000 in the various test series.

[1] abbreviates: Example 3, Table 9, dosage: 1,2-decanediol 1.0%, mixture 0.5% (title; listed as prints 1.5%)+0.2%.
The mark [2] stands for this setting: Example 3, Table 8, dosage: 1,2-hexanediol 3.0%, mixture 1.5%+0.2%.
The mark [3] stands for this setting: Example 3, Table 7, dosage: 1,2-pentanediol 4.0%, mixture 2.0%+0.2%.
Setting [4] is: Example 1a, A=0.5% 1,2-hexanediol+0.5% 1,2-octanediol, C=0.4%+0.4%+0.2%.
[5] abbreviates: Example 1b, A=0.25% 1,2-hexanediol+0.75% 1,2-octanediol, C=0.2%+0.6%+0.2%.
Setting [6] is: Example 2, A=1.0% 1,2-octanediol, C=0.8% 1,2-octanediol+0.2% 4-methylbenzyl alcohol.

SMILES strings stand for the structures.

On to `CCCCCCCCC(O)CO` (centres unmarked) [1,2-Decanediol, reference compound], for which, under setting [1], the “cfu/ml at 0 days” value worked out at 250000 cfu/ml, the “cfu/ml at 2 days” value came out at 208000 cfu/ml and the “cfu/ml at 7 days” value is given as 302000 cfu/ml.

For `CCCCC(O)CO` (centres unmarked) [1,2-Hexanediol, reference compound], under setting [2], the “cfu/ml at 0 days” value came out at 250000 cfu/ml, the “cfu/ml at 2 days” value was 212000 cfu/ml and the “cfu/ml at 7 days” value amounted to 132000 cfu/ml.

Take `CCCC(O)CO` (centres unmarked) [1,2-Pentanediol, reference compound]: under setting [3], the “cfu/ml at 0 days” value is reported as 250000 cfu/ml, the “cfu/ml at 2 days” value came out at 246000 cfu/ml, the “cfu/ml at 7 days” value stood at 265000 cfu/ml and the “cfu/ml at 14 days” value is 246000 cfu/ml.

For the compound `Cc1ccc(CO)cc1` [4-Methylbenzyl alcohol, 4-methylbenzyl alcohol], under setting [4], the “Aspergillus niger germ count at 0 days (initial, "0 value")” value (from here on “Aspergillus niger germ count at 0 days”) is 320000 cfu/ml; the “Aspergillus niger germ count at 2 days” value is 302000 cfu/ml; the “Aspergillus niger germ count at 7 days” value amounted to 167000 cfu/ml. Also, under setting [5], the “Aspergillus niger germ count at 0 days” value was 320000 cfu/ml; the “Aspergillus niger germ count at 2 days” value is given as 302000 cfu/ml; the “Aspergillus niger germ count at 7 days” value is 167000 cfu/ml. Under setting [6], the “Aspergillus niger germ count at 0 days” value stood at 320000 cfu/ml; the “Aspergillus niger germ count at 2 days” value was found to be 302000 cfu/ml; the “Aspergillus niger germ count at 7 days” value was determined as 167000 cfu/ml. Besides, under setting [3], the “cfu/ml at 0 days” value is 250000 cfu/ml, the “cfu/ml at 2 days” value was found to be 208000 cfu/ml, the “cfu/ml at 7 days” value is recorded as 302000 cfu/ml and the “cfu/ml at 14 days” value is 132000 cfu/ml. Further, under setting [2], the “cfu/ml at 0 days” value is listed as 250000 cfu/ml, the “cfu/ml at 2 days” value was found to be 208000 cfu/ml and the “cfu/ml at 7 days” value worked out at 302000 cfu/ml. For the same compound, under setting [1], the “cfu/ml at 0 days” value is recorded as 250000 cfu/ml, the “cfu/ml at 2 days” value came out at 208000 cfu/ml and the “cfu/ml at 7 days” value is listed as 302000 cfu/ml.
